Experimental data taken from patent publication US10308608B2, “Histone deacetylase inhibitors” (BIOMARIN PHARMACEUTICAL INC., priority 2015, dated 2019).
Structures can show the parent of a compound that is named as a salt. Where two headings read alike, the source gives them in different places.

Test system: Frataxin (FXN) mRNA
Assay: Effect of HDAC inhibitors on frataxin (FXN) mRNA expression, qRT-PCR in compound-treated iPSC derived neuronal cells
Format: cell-based
Details: iPSC, 24 h
Procedure, shortened: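 iPSC-derived neuronal cells, differentiated 16 days without EGF/bFGF, treated with compound 24 h. FXN mRNA measured by one-step SYBR Green qRT-PCR; fold induction reported at 0.625 μM compound, binned A<1, 1<B<2, 2<C<3, 3<D<5, E>5.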

[1] = compound concentration of 0.625 μM, 24 h incubation, read-out: FXN mRNA fold induction
[2] = read-out: FXN mRNA fold induction, compound concentration of 0.625 μM, 24 h incubation

| SMILES | fold induction at 0.625 µM [1] | fold induction at 0.625 µM [2] |
| --- | --- | --- |
| Nc1ccccc1NC(=O)c1ccc(O[C@H]2CCN(CC3CCCCC3)C2)cc1 [Compound 56, (S)-N-(2-aminophenyl)-4-((1-(cyclohexylmethyl)pyrrolidin-3-yl)oxy)benzamide dihydrochloride] | 2 to 3 |  |
| CC(C)(C)CN1CC(Oc2ccc(C(=O)Nc3ccccc3N)cc2)C1 [Compound 45, dihydrochloride] | 1 to 2 |  |
| Nc1ccccc1NC(=O)c1ccc(N[C@H]2CCN(CC3CC3)C2)cc1 [Compound 99, (S)-N-(2-aminophenyl)-4-((1-(cyclopropylmethyl)pyrrolidin-3-yl)amino)benzamide trihydrochloride] | 2 to 3 |  |
| CC(C)(O)CN1CCC(Sc2ccc(C(=O)Nc3ccccc3N)cc2)CC1 [Compound 375, N-(2-aminophenyl)-4-((1-(2-hydroxy-2-methylpropyl)piperidin-4-yl)thio)benzamide] | 1 to 2 |  |
| CN1CC(Oc2ccc(C(=O)Nc3ccccc3N)cc2)C1 [Compound 42, N-(2-aminophenyl)-4-((1-methylazetidin-3-yl)oxy)benzamide] | 1 to 2 |  |
| Nc1ccccc1NC(=O)c1ccc(O[C@@H]2CCN(C3COC3)C2)cc1 [Compound 130, (R)-N-(2-aminophenyl)-4-((1-(oxetan-3-yl)pyrrolidin-3-yl)oxy)benzamide] | 1 to 2 |  |
| Nc1ccccc1NC(=O)c1ccc(NC2CCCN(CC3CC3)CC2)cc1 (centres unmarked) [Compound 83, N-(2-aminophenyl)-4-((1-(cyclopropylmethyl)azepan-4-yl)amino)benzamide trihydrochloride] | 2 to 3 |  |
| CC(C)(O)CN1CCC(N(CC2CC2)c2ccc(C(=O)Nc3ccccc3N)cc2)CC1 [Compound 29, N-(2-aminophenyl)-4-((cyclopropylmethyl)(1-(2-hydroxy-2-methylpropyl)piperidin-4-yl)amino)benzamide Trihydrochloride] |  | 1 to 2 |
| CC(C)(C)CN1CC[C@@H](Nc2ccc(C(=O)Nc3ccccc3N)cc2)C1 [Compound 106, (R)-N-(2-aminophenyl)-4-((1-neopentylpyrrolidin-3-yl)amino)benzamide] | 2 to 3 |  |
| Nc1ccccc1NC(=O)c1ccc(N[C@@H]2CCN(C3COC3)C2)cc1 [Compound 139, (R)-N-(2-aminophenyl)-4-((1-(oxetan-3-yl)pyrrolidin-3-yl)amino)benzamide tris(2,2,2-trifluoroacetate)] | 1 to 2 |  |
| CCN(c1ccc(C(=O)Nc2ccccc2N)cc1)C1CCN(CC(C)(C)O)CC1 [Compound 27, N-(2-aminophenyl)-4-(ethyl(1-(2-hydroxy-2-methylpropyl)piperidin-4-yl)amino)benzamide Trihydrochloride] |  | 2 to 3 |
| CN1C2CCC1CC(Oc1ccc(C(=O)Nc3ccccc3N)cc1)C2 (centres unmarked) [Compound 71, N-(2-aminophenyl)-4-((8-methyl-8-azabicyclo[3.2.1]octan-3-yl)oxy)benzamide dihydrochloride] |  | 1 to 2 |
| Nc1ccccc1NC(=O)c1ccc(NC2CCN(CC34CC5CC(CC(C5)C3)C4)CC2)cc1 [Compound 142, 4-((1-(((3r,5r,7r)-adamantan-1-yl)methyl)piperidin-4-yl)amino)-N-(2-aminophenyl)benzamide trihydrochloride] | 2 to 3 |  |
| Nc1ccccc1NC(=O)c1ccc(NC2CC3CCC(C2)N3)cc1 (centres unmarked) [Compound 115, 4-((8-azabicyclo[3.2.1]octan-3-yl)amino)-N-(2-aminophenyl)benzamide] |  | 1 to 2 |
| CC(C)CN1CC[C@H](Nc2ccc(C(=O)Nc3ccccc3N)cc2)C1 [Compound 96, (S)-N-(2-aminophenyl)-4-((1-isobutylpyrrolidin-3-yl)amino)benzamide] | 1 to 2 |  |
| CN1CC[C@H](Oc2ccc(C(=O)Nc3ccccc3N)cc2)C1 [Compound 50, (S)-N-(2-aminophenyl)-4-((1-methylpyrrolidin-3-yl)oxy)benzamide dihydrochloride] | 2 to 3 |  |
| Nc1ccccc1NC(=O)c1ccc(N[C@H]2CCN(C3COC3)C2)cc1 [Compound 137, (S)-N-(2-aminophenyl)-4-((1-(oxetan-3-yl)pyrrolidin-3-yl)amino)benzamide] | 1 to 2 |  |
| Nc1ccccc1NC(=O)c1ccc(OC2CCN(CC34CC5CC(CC(C5)C3)C4)CC2)cc1 [Compound 133, 4-((1-(((3r,5r,7r)-adamantan-1-yl)methyl)pipendin-4-yl)oxy)-N-(2-aminophenyl)benzamide dihydrochloride] | 2 to 3 |  |
| Nc1ccccc1NC(=O)c1ccc(NC2CC3CCC(C2)N3CC2CC2)cc1 (centres unmarked) [Compound 120, N-(2-aminophenyl)-4-((8-(cyclopropylmethyl)-8-azabicyclo[3.2.1]octan-3-yl)amino)benzamide trihydrochloride] |  | 1 to 2 |
| Nc1ccccc1NC(=O)c1ccc(NC2CN(C3CC3)C2)cc1 [Compound 134, N-(2-aminophenyl)-4-((1-cyclopropylazetidin-3-yl)amino)benzamide trihydrochloride] | 1 to 2 |  |
| CN1CC(Nc2ccc(C(=O)Nc3ccccc3N)cc2)C1 [Compound 87, N-(2-aminophenyl)-4-((1-methylazetidin-3-yl)amino)benzamide tris(2,2,2-trifluoroacetate)] | 2 to 3 |  |
| Nc1ccccc1NC(=O)c1ccc(N[C@@H]2CCCN(CC3CCCCC3)CC2)cc1 (single isomer, unassigned) [Compound 85A] | 2 to 3 |  |
| CC(C)(O)CN1CCC(Nc2ccc(C(=O)Nc3ccccc3N)cc2)CC1 [Compound 4, N-(2-aminophenyl)-4-((1-(2-hydroxy-2-methylpropyl)piperidin-4-yl)amino)benzamide] | 1 to 2 |  |
